Results: patent publication US9957257B2, “Amide compounds as 5-HT4 receptor agonists” (SUVEN LIFE SCIENCES LIMITED, priority 2015, dated 2018)

What was measured:
acetylcholine [1] = assay: Modulation of acetylcholine from the frontal cortex (microdialysis); assay type: in vivo, male Wistar rats; settings: p.o.
Text: (§1) Male Wistar rats (240-300 grams) were stereotaxically implanted with a microdialysis guide cannula in frontal cortex (AP: +3.2 mm, ML: −3.2 mm, DV: −1.5 mm). Co-ordinates were taken according to Paxinos and Watson (2004) with reference points taken from bregma and vertical from the skull. The rats were allowed to recover individually for four to five days in a round bottom Plexiglas bowl with free access to feed and water.
One day prior to the microdialysis experiment, rats were connected to a dual quartz lined two-channel liquid swivel (Instech, UK) on a counter balance lever arm, which allowed unrestricted movements of the animal. Sixteen hour before start of study, a pre-equilibrated microdialysis probe (3 mm dialysis membrane) was inserted into the frontal cortex through the guide cannula.
A stabilization period of 2 hours was maintained and five basal samples were collected at 20 minutes intervals. The test compound, Example 50 or vehicle was administered and dialysate samples were collected at 20 minutes interval for an additional period of 4 hours. Dialysates were stored below −70° C. until quantitation of acetylcholine.
(§2) Acetylcholine in dialysate was quantified in the calibration range of 0.103 nmol-103.491 nmol using LC-MS/MS method.
All microdialysis data were plotted as percent change from mean dialysate basal concentrations with 100% defined as the average of five pre-dose values. The AUC was calculated by trapezoidal rule using WinNonlin (5.0.1 version, Pharsight Corp. CA). The statistical significance between the mean AUC values of treatment groups with vehicle was calculated using one-way ANOVA followed by Dunnett's test. For each treatment group, the percent increase in acetylcholine levels was compared to the vehicle group using two-way analysis of variance (time and treatment), followed by Bonferroni's multiple comparison test. Statistical significance was considered at a p value less than 0.05.
In-correct probe placement was considered as criteria to reject the data from animal.

acetylcholine [2] = assay: Modulation of acetylcholine from the ventral hippocampus (microdialysis); assay type: in vivo, male Wistar rats; settings: 1.0 mg/kg, p.o.
Text: as §1, with “ventral hippocampus” for “frontal cortex”, “−5.2” for “+3.2”, “+5.0” for “−3.2”, “−3.8” for “−1.5”
One day prior to the microdialysis experiment, rats were connected to a dual quartz lined two-channel liquid swivel (Instech, UK) on a counter balance lever arm, which allowed unrestricted movements of the animal. […]
A stabilization period of 2 h was maintained and five basal samples were collected at 20 minutes intervals. […] Dialysates were stored below −70° C. until quantitation of acetylcholine.
as §2
All microdialysis data were plotted as percent change from mean dialysate basal concentrations with 100% defined as the average of five pre-dose values. The AUC was calculated by trapezoidal rule using WinNonlin (5.0.1 version, Pharsight Corp. CA). The statistical significance between the mean AUC values of treatment groups with vehicle was calculated using one-way ANOVA followed by Dunnett's test. […]

[3] = Rodent pharmacokinetic study; assay type: in vivo, Male wistar rats; settings: male, Wistar, plasma, rat
Procedure: Male wistar rats (225±25 grams) were used as experimental animals. Three to five animals were housed in each cage. Two days prior to dosing day, male wistar rats (225-250 grams) were anesthetized with isoflurane for surgical placement of jugular vein catheter. Animals were fasted overnight before oral dosing (p.o) and food pellets were allowed 2 hours post dosing, whereas during intravenous dosing food and water were provided as ad libitum. Three rats were dosed with test compounds (3 mg/kg) orally and intravenously (1 mg/kg).
At each time point blood was collected through jugular vein and immediately replenish with an equivalent volume of normal saline from freely moving rats. Collected blood was transferred into a labeled eppendr off containing 10 μL of heparin as anticoagulant. Typically blood samples were collected as following time points: Pre dose, 0.08 (only i.v.), 0.25, 0.5, 1, 2, 4, 6, 8, and 24 hours post dose-(n=3). Blood was centrifuged at 4000 rpm for 10 minutes. Plasma was prepared and stored frozen at −20° C. until analysis. The concentrations of the test compounds were quantified in plasma by qualified LC-MS/MS method using suitable extraction technique. The test compounds were quantified in the calibration range around 2-2000 ng/mL in plasma. Study samples were analyzed using calibration samples in the batch and quality control samples spread across the batch.
Pharmacokinetic parameters Cmax, Tmax, AUCt, T1/2 and Bioavailability were calculated by non-compartmental model using standard non-compartmental model by using WinNonLin 5.0.1 or Phoenix WinNonlin 6.2 version Software package.

[4] = Rodent brain penetration study; assay type: in vivo, Male Wistar rats; settings: male, Wistar, rat, 3 mg/kg, oral (gavage), read-out: Single dose Brain Penetration (Cb/Cp)
Procedure: Male Wistar rats (225±25 grams) were used as experimental animals. Three animals were housed in each cage. Animals were given water and food ad libitum throughout the experiment and maintained on a 12 hours light/dark cycle. Brain penetration was determined in discrete manner in rats. One day prior to dosing day, male wistar rats (225-250 grams) were acclimatized. After acclimatization the rats were grouped according to their weight. In each group, 3 animals were kept in individual cage and allowed free access to food and water. At each time point (0.50, 1 and 2 hours) n=3 animals were used. The test compounds were suitably preformulated and administered orally at (free base equivalent) 3 mg/kg. Blood samples were removed via, cardiac puncture by using isoflurane anesthesia. The animals were sacrificed to collect brain tissue. Plasma was separated and brain samples were homogenized and stored frozen at −20° C. until analysis. The concentrations of the test compounds in plasma and brain were determined using LC-MS/MS method. The test compounds were quantified in plasma and brain homogenate by qualified LC-MS/MS method using suitable extraction technique. The test compounds were quantified in the calibration range of 1-500 ng/mL in plasma and brain homogenate. Study samples were analyzed using calibration samples in the batch and quality control samples spread across the batch. Extent of brain-plasma ratio was calculated (Cb/Cp).

**Q.** What does the source list for `CC(C)(O)CN1CCC(F)(CNC(=O)c2cc(Cl)c(N)c3ccoc23)CC1` [Example 50, 4-Amino-5-chloro-N-{[4-fluoro-1-(2-hydroxy-2-methylpropyl)-4-piperidinyl]methyl}benzofuran-7-carboxamide L(+)-tartarate]?
**A.** Acetylcholine levels, frontal cortex, % of pre-dose levels (acetylcholine [1]; 10.0 mg/kg): 204%; Area under the curve (AUC), frontal cortex acetylcholine (acetylcholine [1]; 10.0 mg/kg): significant increase; acetylcholine levels of frontal cortex (acetylcholine [1]; across doses): dose-dependent increase; Area under the curve increase, hippocampal acetylcholine (acetylcholine [2]): 31%; increase in acetylcholine levels from ventral hippocampus (acetylcholine [2]): 51%; AUC(0-t) ([3]; 1 mg/kg, intravenous (bolus)): 182 ± 37 ng·h/mL; half-life ([3]; 1 mg/kg, intravenous (bolus)): 1.2 h; bioavailability ([3]; 3 mg/kg oral vs 1 mg/kg intravenous): 63 ± 13%; AUC(0-t) ([3]; 3 mg/kg, oral (gavage)): 346 ± 71 ng·h/mL; Cmax ([3]; 3 mg/kg, oral (gavage)): 230 ± 56 ng/mL; Tmax ([3]; 3 mg/kg, oral (gavage)): 0.25 h; half-life ([3]; 3 mg/kg, oral (gavage)): 1.5 h; Kp [4]: 1.48 ± 0.26
